Target: T1, EgLCY (Euglena gracilis, UniProt A0A7I8I611)
T1 construct: gene lcy; full-length open reading frame in pETDuet-1 (pET-EgLCY, NcoI In-Fusion), expressed in lycopene-accumulating E. coli BL21(DE3) carrying pACCRT-EIB
T1 sequence (A0A7I8I611 1-652): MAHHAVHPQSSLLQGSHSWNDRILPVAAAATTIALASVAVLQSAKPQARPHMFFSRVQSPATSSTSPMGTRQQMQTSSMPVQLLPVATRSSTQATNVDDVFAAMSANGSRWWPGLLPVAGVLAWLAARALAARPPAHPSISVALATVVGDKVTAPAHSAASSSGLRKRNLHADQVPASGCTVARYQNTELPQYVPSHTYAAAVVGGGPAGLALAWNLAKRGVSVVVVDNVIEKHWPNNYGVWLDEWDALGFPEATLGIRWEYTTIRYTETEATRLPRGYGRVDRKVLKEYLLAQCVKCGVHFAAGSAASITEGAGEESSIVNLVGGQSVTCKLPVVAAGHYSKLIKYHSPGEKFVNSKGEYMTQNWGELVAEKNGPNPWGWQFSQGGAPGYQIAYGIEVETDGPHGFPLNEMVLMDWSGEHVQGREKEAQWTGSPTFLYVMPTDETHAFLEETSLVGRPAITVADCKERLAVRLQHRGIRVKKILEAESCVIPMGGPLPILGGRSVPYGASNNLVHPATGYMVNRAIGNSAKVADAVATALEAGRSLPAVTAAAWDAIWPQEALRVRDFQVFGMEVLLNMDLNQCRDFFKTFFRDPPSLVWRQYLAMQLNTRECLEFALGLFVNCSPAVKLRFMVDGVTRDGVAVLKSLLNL
Experiment: in vivo conversion in lycopene-accumulating E. coli, HPLC of carotenoid extracts
Format: cell-based
Conditions: co-expression with Pantoea ananatis crtE, crtB, crtI; 48 h at 21°C after IPTG

| SMILES | in vivo conversion in lycopene-accumulating E. coli, HPLC of carotenoid extracts |
| --- | --- |
| CC(C)=CCC/C(C)=C/C=C/C(C)=C/C=C/C(C)=C/C=C/C=C(C)/C=C/C=C(C)/C=C/C=C(\C)CCC=C(C)C [lycopene] | This indicates that EgLCY is a lycopene β-cyclase that converts lycopene to β-carotene. |
| CC1=C(/C=C/C(C)=C/C=C/C(C)=C/C=C/C=C(C)/C=C/C=C(C)/C=C/C2=C(C)CCCC2(C)C)C(C)(C)CCC1 [β-carotene] | accumulated β-carotene as the main carotenoid when the EgLCY gene was co-expressed |

— article PMC8678482, “Suppression of the Lycopene Cyclase Gene Causes Downregulation of Ascorbate Peroxidase Activity and Decreased Glutathione Pool Size, Leading to H2O2 Accumulation in Euglena gracilis” (Frontiers in Plant Science, 2021)
